Values quoted from earlier work in patent US20180338945A1, “SKIN ADHESIVES, ANTIMICROBIAL COMPOSITIONS, ARTICLES, AND METHODS FOR THE USE THEREOF” (DERMALINK TECHNOLOGIES, INC., priority 2015, published 2018).

How the values were obtained:
[1] = system: E. coli; conditions: pure LAE
[2] = system: A. brasiliensis; conditions: pure LAE

## CCCCCCCCCCCC(=O)N[C@@H](CCCNC(=N)N)C(=O)OCC [LAE, N^α-lauroyl-arginine ethyl ester]
[1]
  minimum inhibitory concentration (MIC): 16 micrograms per mL
[2]
  minimum inhibitory concentration (MIC): 32 micrograms per mL
